Test [1] concerns tumor sites of tumor-bearing mice. In words: Fluorescence imaging of IR820-cRGD in living tumor-bearing mice. The test is classed as in vivo. The conditions noted are these: tail vein injection, solution in pure water at 10 μM (or equal equivalent probe concentration), observed 2 hours later; FIG. 5. As for the experimental part: Three tumor-bearing mice were administered with an IR820-cRGD solution in pure water at a concentration of 10 μM, a […] solution in pure water at an equal equivalent probe concentration, and an IR820 solution in pure water at an equal equivalent probe concentration through tail vein injection, respectively. 2 hours later, tumor sites of the mice were observed using an in vivo imaging instrument for small animals to obtain imaging situations.

Test [2] relates to breast cancer cells (MCF-7), cervical cancer cells (Hela), normal cells (CHO). The settings on record: 10 μL of 1 mM DMSO mother solution of probe in 2 mL culture dish; CHO vs MCF-7 and Hela; FIG. 4.
Procedure: An instrument model used for cell imaging is a Leica TCS SP5 II confocal laser scanning microscope using a HC×PLAPO 63×oil objective (NA: 1.40).
The experiment was carried out in three groups, with one group using normal cells (CHO), one group using breast cancer cells (MCF-7), and one group using cervical cancer cells (Hela). Before an imaging test, a cultured cell culture solution was first sucked away, and the cells were washed once with a PBS buffer solution, and then washed once with DMEM or 1640. 10 μL of a formulated DMSO mother solution with a probe concentration of 1 mM was measured and added into a 2 mL culture dish containing a fresh DMEM or 1640 culture medium. After culture was completed, the excessive culture solution was first removed, the cells were washed with a PBS buffer solution (pH 7.4) to remove an excessive probe, and then the imaging test was carried out on the cells separately using a confocal fluorescence microscope.

On to `CC1(C)C(/C=C/C2=C(Oc3ccc(CCC(=O)NCCCC[C@@H]4NC(=O)[C@@H](Cc5ccccc5)NC(=O)[C@H](CC(=O)O)NC(=O)CNC(=O)[C@H](CCCNC(=N)N)NC4=O)cc3)C(=C/C=C3/N(CCCCS(=O)(=O)O)c4ccc5ccccc5c4C3(C)C)/CCC2)=[N+](CCCCS(=O)(=O)O)c2ccc3ccccc3c21` [IR820-cRGD], for which, in test [1], the “fluorescence signal at the tumor site” value is given as “highly bright fluorescence signal”. Besides, the “fluorescence signal in cells (selectivity for tumor cells)” value in test [2] is listed as “greater selective fluorescence signals for the tumor cells”. With `CC1(C)C(/C=C/C2=C(Cl)C(=C/C=C3/N(CCCCS(=O)(=O)[O-])c4ccc5ccccc5c4C3(C)C)/CCC2)=[N+](CCCCS(=O)(=O)O)c2ccc3ccccc3c21` [IR820], the “fluorescence signal at the tumor site” value in test [1] is recorded as “weak fluorescence signal”.
